Like-named read-outs stand apart in the source and are kept apart here.
Key:
[1] = system: Penicillium verrucosum var. cyclopium (food isolate); experiment: Antifungal bioassay (MIC/MFC); assay type: cell-based
[2] = system: Listeria monocytogenes (NCTC 7973); experiment: Antibacterial microdilution (MIC/MBC); assay type: cell-based; conditions: Listeria monocytogenes, NCTC7973, L.m. (L. monocytogenes); for MIC: read-out: MIC
Outline: (§1)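 Modified microdilution; read-outs MIC (growth inhibition) and MBC (killing); refs ampicillin, streptomycin.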

[3] = system: Escherichia coli (ATCC 35210); experiment: Antibacterial microdilution (MIC/MBC); assay type: cell-based; conditions: Escherichia coli, ATCC35210, E. coli; for MIC: read-out: MIC
Outline: as §1

P. aeruginosa = experiment: Antibacterial microdilution (MIC/MBC); assay type: cell-based; conditions: Pseudomonas aeruginosa, P.a. (P. aeruginosa); for MIC: read-out: MIC
Outline: as §1

[4] = system: Enterobacter cloacae (clinical isolate); experiment: Antibacterial microdilution (MIC/MBC); assay type: cell-based; conditions: Enterobacter cloacae, En.cl (En. cloacae); for MIC: read-out: MIC
Outline: as §1

M. flavus = experiment: Antibacterial microdilution (MIC/MBC); assay type: cell-based; conditions: Micrococcus flavus; M.f. (M. flavus)
Outline: as §1

[5] = system: Salmonella typhimurium (ATCC 13311); experiment: Antibacterial microdilution (MIC/MBC); assay type: cell-based; conditions: Salmonella enterica, S.t. (S. typhimurium); for MIC: read-out: MIC
Outline: as §1

[6] = system: Bacillus cereus (clinical isolate); experiment: Antibacterial microdilution (MIC/MBC); assay type: cell-based; conditions: B.c. (B. cereus)
Outline: as §1

[7] = system: Staphylococcus aureus (ATCC 6538); experiment: Antibacterial microdilution (MIC/MBC); assay type: cell-based; conditions: S.a. (S. aureus)
Outline: as §1

[8] = system: Aspergillus fumigatus (ATCC 1022); experiment: Antifungal bioassay (MIC/MFC); assay type: cell-based; conditions: ATCC1022, A.f. (A. fumigatus)
Outline: (§2)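 In duplicate: all strains tested this way.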

P. ochrochloron = experiment: Antifungal bioassay (MIC/MFC); assay type: cell-based; conditions: for MFC: P.o. (P. ochrochloron); for MIC: P.o. (P. ochrochloron; text: P. ochramensis)
Outline: as §2

[9] = system: Trichoderma viride (IAM 5061); experiment: Antifungal bioassay (MIC/MFC); assay type: cell-based; conditions: T.v. (T. viride)
Outline: as §2

A. ochraceus = experiment: Antifungal bioassay (MIC/MFC); assay type: cell-based; conditions: A.o. (A. ochraceus)
Outline: as §2

[10] = system: Aspergillus niger (ATCC 6275); experiment: Antifungal bioassay (MIC/MFC); assay type: cell-based; conditions: ATCC6275, A.n. (A. niger)
Outline: as §2

[11] = system: Penicillium funiculosum (ATCC 36839); experiment: Antifungal bioassay (MIC/MFC); assay type: cell-based; conditions: Talaromyces funiculosus, ATCC36839; P.f. (P. funiculosum)
Outline: as §2

[12] = system: Aspergillus versicolor (ATCC 11730); experiment: Antifungal bioassay (MIC/MFC); assay type: cell-based; conditions: ATCC11730, A.v. (A. versicolor)
Outline: as §2

[13] = Staphylococcus aureus, ATCC6538
[14] = Staphylococcus aureus, ATCC6538, read-out: MIC
[15] = Penicillium ochrochloron, read-out: MIC
[16] = Trichoderma viride, IAM5061, read-out: MIC
[17] = Aspergillus ochraceus, read-out: MIC

COC(=O)c1[nH]c2ccc(F)cc2c1/C=C1\SC(=S)N(CCCC(=O)O)C1=O [Compound 9, (Z)-4-(5-((5-fluoro-2-(methoxycarbonyl)-1H-indol-3-yl)methylene)-4-oxo-2-thioxothiazolidin-3-yl)butanoic acid]
30 ± 10 µg/mL: MIC [2] | MIC [3] | MIC (P. aeruginosa) | MIC [4] | MIC (M. flavus) | MIC [5] | MIC ([6]; Bacillus cereus, read-out: MIC) | MIC [7, 14] | MFC (P. ochrochloron; Penicillium ochrochloron) | MFC [10] | MFC [11] | MFC [12]
192 to 193 °C: melting point
60 ± 6 µg/mL: MBC [2] | MBC [3] | MBC (P. aeruginosa) | MBC [4] | MBC (M. flavus) | MBC [5] | MBC ([6]; Bacillus cereus) | MBC [7, 13]
120 ± 40 µg/mL: MFC [8]
15 ± 3 µg/mL: MFC [1] | MIC (P. ochrochloron; [15]) | MFC ([9]; Trichoderma viride, IAM5061) | MIC [10] | MIC [11] | MIC [12]
4 ± 1 µg/mL: MIC (A. ochraceus)
90 ± 3 µg/mL: MIC [8]
4 µg/mL: MIC (A. ochraceus; [17])
22 ± 5 µg/mL: MIC [1]
8 µg/mL: MIC [9, 16]
8 ± 0.6 µg/mL: MIC [9] | MFC (A. ochraceus; Aspergillus ochraceus)

COC(=O)c1[nH]c2ccc(F)cc2c1/C=C1\SC(=S)N(C)C1=O [Compound 15, (Z)-methyl 5-fluoro-3-((3-methyl-4-oxo-2-thioxothiazolidin-5-ylidene)methyl)-1H-indole-2-carboxylate]
8 µg/mL: MIC (P. ochrochloron; [15]) | MIC [9, 16]
30 ± 10 µg/mL: MIC (P. aeruginosa) | MIC [4] | MIC ([6]; Bacillus cereus, read-out: MIC) | MBC [7, 13] | MFC [8]
234 to 244 °C: melting point
15 ± 3 µg/mL: MFC [1] | MIC [8] | MFC (P. ochrochloron; Penicillium ochrochloron) | MFC ([9]; Trichoderma viride, IAM5061) | MFC (A. ochraceus; Aspergillus ochraceus) | MFC [10] | MFC [11] | MFC [12]
45 ± 3 µg/mL: MIC [2] | MIC [3] | MIC (M. flavus) | MIC [5]
60 ± 6 µg/mL: MBC [2] | MBC [3] | MBC (P. aeruginosa) | MBC [4] | MBC (M. flavus) | MBC [5] | MBC ([6]; Bacillus cereus)
22 ± 5 µg/mL: MIC [7, 14]
8 ± 0.6 µg/mL: MIC [1] | MIC (P. ochrochloron) | MIC [9] | MIC (A. ochraceus; [17]) | MIC [10] | MIC [11] | MIC [12]

COC(=O)c1[nH]c2ccc(F)cc2c1/C=C1\SC(=S)N(c2ccc(O)cc2)C1=O [Compound 10, (Z)-methyl 5-fluoro-3-((3-(4-hydroxyphenyl)-4-oxo-2-thioxothiazolidin-5-ylidene)methyl)-1H-indole-2-carboxylate]
267 to 268 °C: melting point
45 ± 3 µg/mL: MIC (M. flavus) | MIC [5]
120 ± 40 µg/mL: MFC [8]
60 ± 6 µg/mL: MBC [2] | MBC [3] | MBC (P. aeruginosa) | MBC [4] | MBC (M. flavus) | MBC [5] | MBC ([6]; Bacillus cereus) | MBC [7, 13] | MIC [8]
4 ± 1 µg/mL: MIC [9] | MIC (A. ochraceus)
8 ± 0.6 µg/mL: MIC (P. ochrochloron) | MFC ([9]; Trichoderma viride, IAM5061) | MFC (A. ochraceus; Aspergillus ochraceus) | MIC [10] | MIC [11] | MIC [12]
4 µg/mL: MIC [9, 16] | MIC (A. ochraceus; [17])
15 ± 3 µg/mL: MIC [1] | MFC (P. ochrochloron; Penicillium ochrochloron) | MFC [10] | MFC [11] | MFC [12]
8 µg/mL: MIC (P. ochrochloron; [15])
30 ± 10 µg/mL: MFC [1] | MIC [2] | MIC [3] | MIC (P. aeruginosa) | MIC [4] | MIC ([6]; Bacillus cereus, read-out: MIC) | MIC [7, 14]

COC(=O)c1[nH]c2ccccc2c1/C=C1\SC(=S)N(c2ccc(C(=O)O)cc2)C1=O [Compound 2, (Z)-4-(5-((2-(methoxycarbonyl)-1H-indol-3-yl)methylene)-4-oxo-2-thioxothiazolidin-3-yl)benzoic acid]
294 to 295 °C: melting point
30 ± 10 µg/mL: MIC [1] | MIC [2] | MBC [3] | MIC (P. aeruginosa) | MBC [4] | MBC (M. flavus) | MBC [5] | MBC ([6]; Bacillus cereus) | MBC [7, 13] | MIC [8] | MFC (P. ochrochloron; Penicillium ochrochloron) | MFC [10] | MFC [11] | MFC [12]
22 ± 5 µg/mL: MIC [3] | MIC (M. flavus) | MIC [5] | MIC [10]
60 ± 6 µg/mL: MFC [1] | MBC [2] | MBC (P. aeruginosa) | MFC [8]
15 ± 3 µg/mL: MIC (P. ochrochloron; [15]) | MFC ([9]; Trichoderma viride, IAM5061) | MFC (A. ochraceus; Aspergillus ochraceus) | MIC [11] | MIC [12]
15 ± 9 µg/mL: MIC [4] | MIC [6] | MIC [7]
15 µg/mL: MIC ([6]; Bacillus cereus, read-out: MIC) | MIC [7, 14]
8 ± 0.6 µg/mL: MIC [9, 16]

From paper PMC9865890, “N-Derivatives of (Z)-Methyl 3-(4-Oxo-2-thioxothiazolidin-5-ylidene)methyl)-1H-indole-2-carboxylates as Antimicrobial Agents—In Silico and In Vitro Evaluation” (Pharmaceuticals, 2023)
